We go through one compound from patent US20070218121A1, “Compounds that inhibit caspase activity for treating glaucoma” (priority 1997, published 2007).

This test deals with HEK-293-nNOS cells transfected with mICE-lacZ (caspase-1). As to the kind of experiment: Inhibition of caspase-induced apoptosis by endogenous NO in HEK-293-nNOS cells transfected with mICE-lacZ (propidium iodide, apoptotic nuclei count). The class given is cell-based. Particulars: 6 μM 4-Br-A23187 for 48 h after caspase-1 transfection; raises Ca2+ to activate nNOS and produce NO; p≦0.007; FIG. 1. Here is the method: HEK-293 cells [Bredt et al., Nature 351: 714-719 (199)] overexpressing nNOS were transiently transfected with mICE-lacZ (containing the caspase-1 construct [Miura et al., Cell 75: 653-660 (1993)] or control placZ using the calcium phosphate precipitation method. Following transfection, cells were incubated in absence (0 μM) or presence of 6 μM 4-Br-A23187 for 48 h. Cells were then permeabilized, fixed, and stained with propidium iodide. Apoptotic nuclei were counted in ≧12 fields and results expressed as a percentage of total nuclei. The results are shown in FIG. 1. Values are the mean ± SEM for n≧3 from at least two experiments.

SMILES strings stand for the structures.

Regarding `CNc1c(Br)cc2oc(C[C@H]3OC4(CC[C@H]3C)O[C@H]([C@H](C)C(=O)c3ccc[nH]3)[C@H](C)C[C@H]4C)nc2c1C(=O)O` (stereo partly shown) [4-Br-A23187], the “apoptosis (apoptotic nuclei as percentage of total nuclei)” value is “highly significant decrease in apoptosis”.
